Experimental data taken from patent US12357574B2, “Particle coating method” (University of Limerick, priority 2020, dated 2025).

Assay: Dissolution percentage as a function of time, UV spectrophotometry
Type: physicochemical
Conditions: API as received
Experimental: The dissolution percentage as a function of time was measured by respectively dissolving the as received CBZ and the coated MCC carrier particles in methanol (although other dissolution media could be used). UV spectrophotometry was used to measure the concentration of the CBZ dissolved in the methanol.

dissolution percentage (after approximately 50 minutes, methanol) | dissolution percentage (within 10 minutes, methanol) | Compound | dissolution percentage (after approximately 60 minutes)
approximately 80% | less than 40% | NC(=O)N1c2ccccc2C=Cc2ccccc21 [Carbamazepine, carbamazepine] | 
 |  | Cc1nc2n(c(=O)c1CCN1CCC(c3noc4cc(F)ccc34)CC1)CCCC2 [Risperidone, risperidone] | less than 40%
